The test system of series [1] is MDA-MB 435 melanoma cell line. Briefly: MTT cytotoxicity assay, MDA-MB 435. Conditions: Homo sapiens, 72 h, read-out: GI50, MDA-MD435. The format is cell-based. The text has this: (§1) Human melanoma cell line MDA-MB 435, pancreatic cancer cell line Panc-1, and colon cancer cell line HT 29 were purchased from the American Type Cell Culture (Manassas, VA, USA). HCT 116 p53^+/+ and HCT 116 p53^−/^− were kindly provided by Dr. Bert Vogelstein, Johns Hopkins Medical Institutions (Baltimore, MD, USA). HCT 116 p53^+/+, HCT116 p53^−/^−, and HT 29 cells were maintained as monolayer cultures in RPMI 1640 supplemented with 10% fetal bovine serum (FBS; Gemini-Bioproducts, Woodland, CA, USA) and 2 mmol/L L-glutamine at 37 °C in a humidified atmosphere of 5% CO2. Similarly, MDA-MB 435 and Panc-1 cells were maintained in Dulbecco’s modified Eagle’s medium (DMEM) supplemented with 10% fetal bovine serum as described above. […]
(§2) Cytotoxicity was assessed by 3-(4,5-dimethylthiazol-2-yl)-2,5-diphenyltetrazolium bromide (MTT) assay as previously described. […]
(§3) After 72 h exposure to the test compounds, MTT solution (5 mg/mL; 20 μL) was added to each well and cells were incubated for 4 h at 37 °C. […] The absorbance intensity was measured at 570 nm against appropriate blank controls using a microplate reader (Molecular Devices, Sunnyvale, CA, USA). […]
On the technique in general: Tetrazolium assays rely on reduction of a dye to a coloured formazan, in cell work by metabolically active cells.

The subject of series [2] is HT 29 colon cancer cell line. As to the kind of experiment: MTT cytotoxicity assay, HT 29. The following applies: Homo sapiens, 72 h. The format is cell-based.
Description: as §1, §2, §3

Series [3] relates to Panc-1 pancreatic cancer cell line. Briefly: MTT cytotoxicity assay, Panc-1. The format is cell-based. Conditions: Homo sapiens, 72 h.
Description: as §1, §2, §3

The test system of series [4] is HCT 116 p53^−/^−. As to the kind of experiment: MTT cytotoxicity assay, HCT 116 p53−/−. The format is cell-based. Conditions: Homo sapiens, 72 h.
Description: as §1, §2, §3

Series [5] has as its target T1, HIV-1 IN (Human immunodeficiency virus type 1 group M subtype B, UniProt P12497).
T1 construct: pre-incubated with purified recombinant IN (at a final concentration of 200 nM); made in house
As to the kind of experiment: In vitro IN inhibition assay (3’-processing and strand transfer). The format is biochemical. Conditions: Mn2+ cofactor (7.5 mM MnCl2). The method in brief: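 Recombinant HIV-1 IN (200 nM) preincubated with compound 30 min at 30 °C in MnCl2-containing buffer (MgCl2 plus PEG for Mg2+ format), then 1 h with 20 nM 5'-32P-labeled 21-mer duplex. 3'-processing and strand-transfer products resolved on denaturing gels, phosphorimager-quantified; IC50 from log-concentration versus % inhibition.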

The test system of series [6] is HCT 116 p53^+/+. Briefly: MTT cytotoxicity assay, HCT 116 p53+/+. The format is cell-based. Conditions: Homo sapiens, 72 h.
Description: as §1, §2, §3

Setting [7] is: read-out: Inhibition of IN catalytic activity IC50, 3’-Processing.
Setting [8] is: read-out: Inhibition of IN catalytic activity IC50, Strand Transfer.

Structures are written as SMILES. Where two headings read alike, the source gives them in different places.

The melting point is the temperature of the solid-liquid transition. Broadly, the GI50 is the concentration giving 50% growth inhibition. The IC50 is the concentration that gives 50% inhibition.

`O=C(Nc1ccc(Cl)cc1)C(=S)NN1C(=O)C(=Cc2ccc([N+](=O)[O-])o2)SC1=S` [Compound 13, N-(4-chlorophenyl)-2-{5-[(5-nitro-2-furyl)methylene]-4-oxo-2-thioxo-1,3-thiazolidin-3-yl}amino-2-thioxoacetamide]: the melting point lay in the range of 159 to 160 °C. The GI50 in series [1] was 13.5 ± 5.2 µM. For the same compound, the GI50 in series [2] is more than 10 µM. In addition, in series [3], growth was halved (GI50) at 8.6 ± 1.6 µM. Also, in series [4], the GI50 was determined as 6.5 ± 1.2 µM. In series [5] (setting [7]), the IC50 was determined as 68 ± 46 µM. Moreover, in series [5] (setting [8]), the IC50 is 41 ± 27 µM. In addition, in series [6], the GI50 was more than 10 µM.
As for `COc1ccc(NC(=O)C(=S)NN2C(=O)C(=Cc3ccc([N+](=O)[O-])o3)SC2=S)cc1` [Compound 17, N-(4-methoxyphenyl)-2-{5-[(5-nitro-2-furyl)methylene]-4-oxo-2-thioxo-1,3-thiazolidin-3-yl}amino-2-thioxoacetamide], the melting point is 187 to 188 °C. Moreover, the GI50 in series [1] turned out to be 9 ± 1.1 µM. In addition, the GI50 in series [2] is 9.6 µM. Also, it took 8.2 ± 1.2 µM to inhibit growth in series [3] by half (GI50). This compound had a GI50 in series [4] of 6.1 ± 2.2 µM. For the same compound, in series [5] (setting [7]), the IC50 stood at 77 ± 10 µM. Further, the IC50 in series [5] (setting [8]) stood at 60 µM. In series [6], this compound had a GI50 of 5.1 ± 0.8 µM.

The values are drawn from paper PMC6264390, “Design, Synthesis and Structure-activity Studies of Rhodanine Derivatives as HIV-1 Integrase Inhibitors” (Molecules, 2010).
